Columns and labels:
[1] = system: MDA-MB-453 cells (HER2-positive); assay: Anti-proliferation assay (MTT); type: cell-based; conditions: Homo sapiens
Description: (§1) Cells were grown in DMEM medium supplemented with 10% fetal bovine serum, 100 U/mL penicillin, […] streptomycin and 2 mM/L L-glutamine. Cells were maintained at 37 °C in 5% CO2.
(§2) Cells were seeded in 96-well plates at a density of 5 × 10^3 cells per well in 100 μL of medium. […] Media were then replaced with serum-free DMEM containing MTT (0.5 mg/mL), then cells were incubated for 4 h. Media were removed and 150 μL of DMSO was added to dissolve formazan crystals. Absorbance was measured at 570 nm using a microplate reader. Untreated cells were used as a negative control (100% viability). IC50 was calculated by fitting the curve of cell viability against the drug concentration.

[2] = patients, p = 0.03; cited from earlier work
MDA-MB-453 cells = assay: Annexin V-FITC/PI apoptosis assay; type: cell-based, human; conditions: 56 ng/mL, 24 h
Description: To evaluate apoptosis and necrosis, we used Annexin V-FITC/PI assays, as per the manufacturer’s protocols. Briefly, MDA-MB-453 cells (1 × 10^6 cells/well) were seeded in six-well plates and maintained at 37 °C in 5% CO2 and a 95% humidified atmosphere. The medium was replaced with freshly prepared medium containing drug-loaded formulations. Untreated cells were used as controls. After 24 h, cells were washed twice with PBS and resuspended in 500 μL of binding buffer. We added 5 μL of FITC-conjugated Annexin V and 10 μL of PI, and incubated cells for 15 min at room temperature in the dark. Cells were then analyzed by a Muse™ Cell Analyzer (Merck-Millipore, Germany) and the extent of apoptosis and necrosis was determined.

[3] = system: MDA-MB-231 cells (HER2-negative); assay: Anti-proliferation assay (MTT); type: cell-based, human
Description: as §1, §2

IC50 ([1]; MDA-MB-453, 48 h of incubation): > 0.25 µg/mL
IC50 ([3]; Homo sapiens, MDA-MB-231, 48 h of incubation): > 0.25 µg/mL
SMILES: CC(=O)O[C@@]12CO[C@@H]1C[C@H](O)[C@@]1(C)C(=O)[C@H](O)C3=C(C)[C@@H](OC(=O)[C@H](O)[C@@H](NC(=O)OC(C)(C)C)c4ccccc4)C[C@@](O)([C@@H](OC(=O)c4ccccc4)[C@H]21)C3(C)C [DTX, docetaxel]
viability at 0.125 µg/mL ([1]; 125 ng/mL drug concentration, 48 h, MDA-MB-453, read-out: cell viability): 69%
survival [2]: 22.7 months
live cells (MDA-MB-453 cells): 83.1%
total percentage of apoptotic cells (MDA-MB-453 cells): 16.5%
cell viability ([3]; 48 h, MDA-MB-231): 61.9%

From PMC4823704, “Trastuzumab-grafted PAMAM dendrimers for the selective delivery of anticancer drugs to HER2-positive breast cancer” (Scientific Reports, 2016)
